# Assay results published in patent US20070270403A1 (priority 2003, published 2007).
# Like-named read-outs stand apart in the source and are kept apart here.
# Legend:
# DA release in NAcc [1] = test: In vivo microvoltammetry, DA release in NAcc (risperidone studies); set-up: species or system Sprague-Dawley Rattus Norvegicus
# Protocol: (§1) In vivo microvoltammetry was used to detect dopamine (DA) and serotonin (5-HT) release from Nucleus Accumbens (NAcc) of freely moving, male, Sprague Dawley laboratory rats, while animals' locomotor (forward ambulations) and stereotypic behavior (fine movements of sniffing and grooming) were monitored at the same time with infrared photobeams. Monoamine release mechanisms were determined by using a depolarization blocker, gamma-butyrolactone (γBL). Miniature carbon sensors, BRODERICK PROBE® Lauric Acid Microelectrodes, smaller than a human hair, were used in conjunction with a semidifferential electrochemical circuit, to detect release of each monoamine in separate signals and within seconds. […] The hypothesis for the present studies is derived from a growing body of evidence that cocaine-induced psychosis and schizophrenic psychosis share similar neurochemical and behavioral manifestations.
# (§2) Animals were purchased from Charles River Laboratories, Kingston, N.Y. and were housed in our animal care facilities for two weeks before surgery was performed. The Animal Care Facility operates under the auspices of the CUNY, City College Institutional Animal Care and Use Committee (IACUC) in compliance with National Institute of Health (NIH) guidelines. The weight range for the animals, at the time of the studies, was 350-475 g. Animals were group housed before surgery, individually housed after surgery and fed Purina Rat Chow and water ad libitum. A twelve hr dark-light cycle was maintained both in the housing of the animals and throughout the experimental studies. […] A Ag/AgCl reference electrode was placed in contact with dura, 7 mm anteriorally and contralaterally to the indicator microelectrode. A stainless steel auxiliary microelectrode, was placed in contact with dura.
# In vivo microvoltammetric studies on conscious Sprague-Dawley laboratory rats were begun nine to fifteen days after the aseptic surgical operations were performed. On each experimental day, animals were placed in a Plexiglas-copper faradaic chamber. The three-microelectrode assembly, enclosed within the animal's prosthetic acrylic cap, was connected to a CV37 detector by means of a mercury commutator (Br. Res. Instr., Princeton, N.J.), a flexible cable, and a mating connector (BJM Electronics, Staten Island, N.Y.). […] In vivo microvoltammetric scans were recorded in sec and repeated every five min for a period of 2 hrs before each treatment and a period of two hrs after each treatment.
# The first hr pre-drug, allowed exploratory behavior. […] Each animal was monitored for possible recovery, withdrawal or after-effects. of each treatment WHILE open-field behaviors of locomotions and stereotypy were monitored with computerized infrared photocell beams which surround the faradaic chamber.
# 5-HT release in NAcc [2] = test: In vivo microvoltammetry, 5-HT release in NAcc (risperidone studies); set-up: species or system Sprague-Dawley Rattus Norvegicus
# Protocol: as §1, §2
# (§3) In vivo microvoltammetric studies on conscious Sprague-Dawley laboratory rats were begun nine to fifteen days after the aseptic surgical operations were performed. On each experimental day, animals were placed in a Plexiglas-copper faradaic chamber. The three-microelectrode assembly, enclosed within the animal's prosthetic acrylic cap, was connected to a CV37 detector by means of a mercury commutator (Br. Res. Instr., Princeton, N.J.), a flexible cable, and a mating connector (BJM Electronics, Staten Island, N.Y.). The CV37 detector was electrically connected to a Minigard surge suppresser (Jefferson Electric, Magnetek, N.Y.) which was then connected to an electrical ground in isolation. […] Each animal was used as its own control. In vivo microvoltammetric scans were recorded in sec and repeated every five min for a period of 2 hrs before each treatment and a period of two hrs after each treatment.
# (§4) The first hr pre-drug, allowed exploratory behavior. Exploratory behavior is defined as open-field behavior of ambulations (forward locomotion) and stereotypy (fine movements of sniffing and grooming), wherein animals respond to the stimuli of a novel environment with a high frequency of behavioral counts. The second hr pre-drug allowed the animal to become habituated before treatment. […] In the acute studies, each drug was administered […]. For the subacute studies, twenty four hrs later, the animals were again placed in the faradaic behavioral chamber and no further drug was administered. Each animal was monitored for possible recovery, withdrawal or after-effects. of each treatment WHILE open-field behaviors of locomotions and stereotypy were monitored with computerized infrared photocell beams which surround the faradaic chamber.
# [3] = system: Sprague-Dawley laboratory rats; test: Locomotion (ambulations) by infrared photobeams (risperidone studies); assay type: in vivo, Sprague-Dawley Rattus Norvegicus
# Protocol: (§5) Behaviors were monitored with infrared photobeams which surrounded the faradaic chamber. Open-field behaviors of locomotion (ambulations) and stereotypy (fine movements of sniffing and grooming) were recorded in sec and repeated every five min for a period of 2 hrs before each treatment and a period of 2 hrs after each treatment. Open-field behaviors were monitored simultaneously with in vivo microvoltammetric recordings of monoamines.
# as §4
# (§6) The faradaic chamber was made of plexiglas and covered with copper wire to refract possible electrical artifacts (dimensions: 24 inch (width) by 18 inch (depth) by 23.5 inch (height)). A 16 by 16 array of infrared photobeams, held in place by an aluminum frame, was situated ¾ inch above the Plexiglas floor of the chamber to detect locomotor and stereotypic movements. Photobeams were sampled by a Pentium computer to define the x-y position of the animal within a 1.5 inch resolution every 100 msec. When an x-y position was calculated, it was used to define a particular behavioral parameter. This system is a modified version of an Activity Pattern Monitor (APM) (San Diego Instruments, San Diego, Calif.). Behavioral data is presented in terms of Frequency of Events.
# (§7) Neurochemical and behavioral data, derived from the last thirty minutes of the habituation period, provided the baseline data. […] Where appropriate, data points in the time course were subjected to 95% Confidence Limits (C.L.).
# [4] = system: Sprague-Dawley laboratory rats; test: Stereotypy (fine movements of sniffing and grooming) by infrared photobeams (risperidone studies); assay type: in vivo, Sprague-Dawley Rattus Norvegicus
# Protocol: as §5, §4, §6, §7
# [5] = humans, cited from earlier work
# DA2 receptor = target: T1, DA2 receptor (Rattus norvegicus, UniProt P61169); details: cited from earlier work
# T1 construct: host or cells: brain (nucleus accumbens) of dosed animals
# T1 sequence (P61169 whole entry): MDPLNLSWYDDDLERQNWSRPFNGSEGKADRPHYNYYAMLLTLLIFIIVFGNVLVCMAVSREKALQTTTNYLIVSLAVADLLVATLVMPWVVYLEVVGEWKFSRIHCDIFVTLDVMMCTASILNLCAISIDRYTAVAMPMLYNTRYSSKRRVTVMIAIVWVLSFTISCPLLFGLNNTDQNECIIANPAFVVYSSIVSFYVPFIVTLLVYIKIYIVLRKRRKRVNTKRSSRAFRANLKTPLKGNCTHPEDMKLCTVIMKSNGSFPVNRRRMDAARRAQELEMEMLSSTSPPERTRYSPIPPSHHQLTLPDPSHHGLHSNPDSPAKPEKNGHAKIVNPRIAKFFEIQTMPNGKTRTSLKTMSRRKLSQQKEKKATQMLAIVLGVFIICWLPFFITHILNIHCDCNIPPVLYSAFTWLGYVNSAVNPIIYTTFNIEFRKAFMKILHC
# DA2 receptors = DA2 receptors (Homo sapiens, UniProt P14416); details: ketanserin: DA receptors; cited from earlier work
# Chain of DA2 receptors (P14416 whole entry): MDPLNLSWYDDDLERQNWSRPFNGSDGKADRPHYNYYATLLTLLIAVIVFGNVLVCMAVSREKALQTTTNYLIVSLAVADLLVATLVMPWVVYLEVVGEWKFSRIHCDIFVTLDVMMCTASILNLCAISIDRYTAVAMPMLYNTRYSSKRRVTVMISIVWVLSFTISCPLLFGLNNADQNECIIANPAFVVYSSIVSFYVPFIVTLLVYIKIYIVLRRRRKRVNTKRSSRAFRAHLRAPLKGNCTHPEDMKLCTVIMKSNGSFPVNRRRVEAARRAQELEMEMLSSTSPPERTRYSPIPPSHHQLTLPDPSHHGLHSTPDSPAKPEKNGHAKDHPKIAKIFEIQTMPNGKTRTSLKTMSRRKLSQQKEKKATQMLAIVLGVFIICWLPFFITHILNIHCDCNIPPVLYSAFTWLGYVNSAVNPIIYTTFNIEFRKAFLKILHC
# [6] = system: 5-hydroxyindoleacetic acid (5-HIAA) in NAcc; details: risperidone 0.2 mg/kg s.c. and 2.0 mg/kg s.c., time-dependent; cited from earlier work
# DA release in NAcc [7] = test: In vivo microvoltammetry, DA release in NAcc (clozapine studies); set-up: species or system Sprague-Dawley Rattus Norvegicus; details: ketanserin 3 mg/kg s.c. substituted for clozapine
# Protocol: (§8) There is an increasing awareness that a psychosis, similar to that of schizophrenic psychosis, can be derived from cocaine addiction. […] Release mechanisms for monoamines, were determined by using a depolarization blocker, gamma-butyrolactone (γBL). […] Acute and Subacute studies were performed for each treatment group.
# (§9) The stereotaxic equipment was purchased from David Kopf Instruments, Tujunga, Calif. A Ag/AgCl reference electrode was placed in contact with dura, 7 mm anteriorally and contralaterally to the indicator microelectrode. A stainless steel auxiliary microelectrode was placed in contact with dura. BRODERICK PROBE® microelectrodes were manufactured on site.
# as §3, with “the animal was” for “animals were”, “control. Changes in synaptic concentrations of DA and 5-HT are presented as percent change (% of control) in order to minimize normal between-animal variations. […]” for “control.”
# (§10) Potentials were applied with a CV37 detector (BAS, West Lafayette, Ind.). Potentials were applied from −0.2V to +0.4V with respect to a Ag/AgCl (1M NaCl) electrode, at a scan rate of 10 mV/sec at time constants of 5 and 1 tau. One scan was completed in 60 sec. Non-faradaic charging current was eliminated in the first 25 sec.
# (§11) Calibration curves were determined experimentally, in vitro, in a freshly prepared deoxygenated physiological saline-phosphate buffer solution (0.01 M, pH=7.4). We use ultra pure Nitrogen (N2) (T. W. Smith Corp., Bklyn, N.Y.) to deoxygenate the buffer solution. […] Calibration studies were also performed in freshly prepared deoxygenated buffer solutions containing phosphotidylethanolamine (PEA), combined with bovine serum albumin (BSA) (Sigma Aldrich, St. Louis, Mo.), a solution which closely mimics brain constituents. […] Detection limits for basal synaptic concentrations of DA and 5-HT in NAcc were 12 nM and 2 nM respectively.
# 5-HT release in NAcc [8] = test: In vivo microvoltammetry, 5-HT release in NAcc (clozapine studies); set-up: species or system Sprague-Dawley Rattus Norvegicus; details: ketanserin 3 mg/kg s.c. substituted for clozapine
# Protocol: as §8, §9
# as §3, with “the animal was” for “animals were”, “control. Changes in synaptic concentrations of DA and 5-HT are presented as percent change (% of control) in order to minimize normal between-animal variations. […]” for “control.”
# as §10, §11
# [9] = system: Sprague-Dawley laboratory rats; test: Locomotor activity (ambulations) by infrared photobeams (clozapine studies); assay type: in vivo, Sprague-Dawley Rattus Norvegicus; details: ketanserin 3 mg/kg s.c. substituted for clozapine
# From the text: Locomotor activity (ambulation) was monitored with infrared photobeams at the same time as DA and 5-HT release in NAcc was detected with BRODERICK PROBES® in conjunction with In Vivo Microvoltammetry. The chamber was faradaic, covered with copper to refract possible electrical artifacts (dimensions: 24 in (width) by 18 in (depth) by 23.5 in (height)). A 16 by 16 array of these infrared photobeams, were held in place by an aluminum frame which was situated ¾ in above the Plexiglas floor of the chamber to detect locomotor activity. Photobeams were sampled by a Pentium computer to define the x-y position of the animal within a 1.5 in resolution every 100 msec. When an x-y position was calculated, it was used to define the frequency of locomotor activity in counts. The locomotor activity system is a modified version of an Activity Pattern Monitor (APM) (San Diego Instruments, San Diego, Calif.). Behavioral data is presented in absolute frequency, i.e., number of counts recorded.
# The first hr pre-drug allowed exploratory behavior. Exploratory behavior is defined as open-field behavior of ambulations (forward locomotion) wherein animals respond to the stimuli of a novel environment with high frequency of behavioral counts. The second hr pre-drug allowed the animal to become habituated before treatment.
# In the Acute studies, each drug was administered at the end of the habituation period. Baseline (control) values were taken every five min for the last thirty min of the habituation period at which time drug injection(s) took place. Electrochemical recordings for DA and 5-HT release in NAcc, were continued for two hrs; at the same time, locomotor behavior continued to be monitored and recorded with infrared photobeams. At the end of the 2 hr drug(s) study, animals were then placed back in their home cages.
# In the Subacute studies, which took place twenty-four hrs later, the animals were again placed in the faradaic behavioral chamber and no further drug was administered. Recordings of separate electrochemical signals for DA and 5-HT release in NAcc, were taken for one hr; at the same time, locomotor behavior was monitored and recorded with infrared photobeams.
# as §7
# 5-HT2A receptors = 5-HT2A receptors (Homo sapiens, UniProt P28223); details: cited from earlier work
# Chain of 5-HT2A receptors (P28223 whole entry): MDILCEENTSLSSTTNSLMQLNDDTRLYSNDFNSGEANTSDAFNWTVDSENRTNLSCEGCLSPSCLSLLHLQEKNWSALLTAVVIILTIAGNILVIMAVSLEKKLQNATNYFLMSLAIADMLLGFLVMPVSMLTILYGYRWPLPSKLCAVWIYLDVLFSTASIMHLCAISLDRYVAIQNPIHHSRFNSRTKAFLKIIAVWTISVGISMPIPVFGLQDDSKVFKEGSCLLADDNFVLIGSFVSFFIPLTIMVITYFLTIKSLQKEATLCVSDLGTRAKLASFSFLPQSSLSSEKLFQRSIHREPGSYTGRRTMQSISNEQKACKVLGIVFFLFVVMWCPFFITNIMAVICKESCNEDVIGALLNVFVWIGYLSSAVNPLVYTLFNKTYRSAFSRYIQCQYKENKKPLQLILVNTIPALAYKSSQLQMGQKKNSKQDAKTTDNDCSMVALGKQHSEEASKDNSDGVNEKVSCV
# [10] = risperidone 2 mg/kg s.c. + cocaine 10 mg/kg i.p., versus cocaine group
# [11] = risperidone 2 mg/kg s.c. + cocaine 10 mg/kg i.p., entire 2 hr period
# [12] = risperidone 2 mg/kg s.c., cocaine 10 mg/kg i.p. or both, 2 hr
# [13] = 24 hr after risperidone 2 mg/kg s.c.
# [14] = 24 hr after single dose, no further drug
smiles,measurement,setting,value
"Cc1nc2n(c(=O)c1CCN1CCC(c3noc4cc(F)ccc34)CC1)CCCC2 [Risperidone, risperidone]","DA release in NAcc Day 2 versus Day 1 baseline, Subacute","DA release in NAcc [1]; 24 hr after single dose (risperidone 2 mg/kg s.c., cocaine 10 mg/kg i.p. or both), no further drug",returned to baseline
same,"DA release in NAcc versus baseline (habituation), Day 1 Acute","DA release in NAcc [1]; risperidone 2 mg/kg s.c. (N=5) or cocaine 10 mg/kg i.p. (N=4), 2 hr",significantly increased
same,"Effect on cocaine-induced DA release, Acute, first hr",DA release in NAcc [1]; [10],significant blockade
same,"Effect on cocaine-induced DA release, Acute, second hr",DA release in NAcc [1]; [10],did not completely block
same,"5-HT release in NAcc Day 2 versus Day 1 baseline, Subacute","5-HT release in NAcc [2]; 24 hr after single dose, no further drug, 1 hr, cocaine: 15, 20, 50, 55 min time points",significantly increased
same,Increase in 5-HT release in NAcc during the time course (up to),"5-HT release in NAcc [2]; Acute, risperidone 2 mg/kg s.c.",about 60%
same,Further increase in 5-HT release on Day 2 compared to drug effect on Day 1 (approximate average),"5-HT release in NAcc [2]; Subacute, risperidone 2 mg/kg s.c. on Day 1",~25%
same,"Effect on cocaine-induced 5-HT release, Acute",5-HT release in NAcc [2]; [11],blocked
same,"5-HT release in NAcc versus baseline (habituation), Day 1 Acute",5-HT release in NAcc [2]; [12],significantly increased
same,"Locomotor activity frequency, Day 2 (Subacute)",[3]; [13],about 200 counts
same,"Locomotion Day 2 versus Day 1 baseline, Subacute",[3]; [14],did not affect locomotion to a statistically significant degree
same,"Locomotor activity frequency with drug treatment, Day1",[3]; risperidone 2 mg/kg s.c.,50 counts
same,"Effect on cocaine-induced locomotor (psychostimulant) activity, Acute",[3]; [11],blocked
same,"Locomotor activity (ambulations) versus baseline (habituation), Day 1 Acute",[3]; [12],did not affect
same,"Stereotypy maximum frequency, Day 2 (Subacute)",[4]; [13],about 50 counts
same,"Stereotypy Day 2 versus Day 1 baseline, Subacute",[4]; [14],increased stereotypy to a statistically significant degree
same,"Stereotypy maximum frequency with drug treatment, Day 1",[4]; risperidone 2 mg/kg s.c.,12 counts
same,"Effect on cocaine-induced stereotypic activity, Acute",[4]; [11],blocked
same,"Stereotypy versus baseline (habituation), Day 1 Acute",[4]; [12],did not affect
same,half-life,[5]; fast metabolizers,3 h
same,half-life,[5]; slow metabolizers,20 h
same,ED50 of DA2 receptor occupancy,"DA2 receptor; NAcc, [3H] spiperone labeling studies",1.0 mg/kg
same,DA2 receptor occupancy,DA2 receptor; high dose risperidone,70%
same,Affinity for DA2 receptors,DA2 receptors,high affinity
same,Increase in 5-HIAA concentrations above baseline (up to),[6],up to 20%
O=C(c1ccc(F)cc1)C1CCN(CCn2c(=O)[nH]c3ccccc3c2=O)CC1 [ketanserin],"Blockade of cocaine-induced DA release, Acute, compared with clozapine",DA release in NAcc [7],weaker than that of clozapine
same,"Blockade of cocaine-induced 5-HT release, Acute, compared with clozapine",5-HT release in NAcc [8],weaker than that of clozapine
same,"Blockade of cocaine-induced psychomotor stimulant behavior, Acute, compared with clozapine",[9],weaker than that of clozapine
same,Affinity for 5-HT2A receptors,5-HT2A receptors,high affinity
same,Affinity for DA2 receptors,DA2 receptors,does not bind
